Tested on: Trypanosoma brucei
Assay: ALAMARBLUE cell viability / growth assay of T. brucei cells
Format: cell-based
Procedure: To determine cell growth rate, WT and two TbRPA1 RNAi KD strains (KD1 and KD2) were seeded at a density of 1×10^5 cells/ml and cultured with or without tetracycline for the induction of RNAi. Cells were counted every 12 hours for 2 days. To determine the viability of TbRPA1-depleted cells, ALAMARBLUE® assay (Thermo Fisher, an established colorimetric technique that detects metabolically active cells) was used. Cells from each time point were incubated with ALAMARBLUE® dye for 4-6 hours and percentage of live cells was determined by measuring resorufin converted from resazurin by reducing environment of live cells. Synergy H1 microplate reader (BioTek) was used with 560/590 nm (excitation/emission) filter settings and Relative Fluorescence Unit (RFU) values were obtained. The percentage of viable cells were calculated from the RFU values.
The initial assessment of JC-229's inhibitory effect on T. brucei cell growth was performed at 50 μM concentration. Trypanosome cells were seeded at 1×10^3 cells/ml density in 180 μl in a 96-well culture plate in triplicate. These cells were incubated with 50 μM JC-229 for 24, 48, and 72 hours. DMSO was used as a vehicle control at 0.0075%. JC-229-treated culture and control cultures were analyzed with the ALAMARBLUE® dye as described above.
To obtain the EC50 value of JC-229, T. brucei cells were seeded at 1×10^3 cells/ml density in 180 μl in a 96-well culture plate in triplicate. These cells were incubated for 72 hours with increasing concentrations of JC-229, (0.5 μM to 50 μM) and cell viability was determined using the ALAMARBLUE® dye as described above.
Trypanosoma brucei cytotoxicity of JC-229 and analogs were measured using ALAMARBLUE® assay (Rampersad, S. N. Multiple applications of ALAMARBLUE® as an indicator of metabolic function and cellular health in cell viability bioassays. Sensors (Basel) 12, 12347-12360 (2012). Trypanosome cells were seeded at 1×10^3 cells/ml density in 180 μl in a 96-well culture plate in triplicate. These cells were incubated with indicated concentration of JC compounds for 72 hours. DMSO was used as a vehicle control at 0.0075%. JC compound-treated cultures were then incubated with ALAMARBLUE® dye for 4-6 hours and percentage of live cells was determined using Synergy H1 microplate reader (BioTek) with 560/590 nm (excitation/emission) filter settings and Relative Fluorescence Unit (RFU) values were obtained. The percentage of viable cells were calculated from the RFU values by normalizing to DMSO treated control. In one embodiment, the inhibitor is characterized in that it provides at least 50%, at least 80% or at least 90% inhibition at a concentration of 5 μM when tested in accordance with the above conditions.

[1] = T. brucei, 2 μM, 72 hours, normalized to DMSO control
[2] = T. brucei, 5 μM, 72 hours, normalized to DMSO control
[3] = T. brucei, 72 hours, normalized to DMSO control

Row | Compound | % Inhibition @2 μM [1] [%] | % Inhibition @5 μM [2] [%] | % Inhibition @10 μM [3] [%] | effect on T. brucei proliferation (even at 60 μM) | inhibition at 2 µM (Trypanosoma brucei, T. brucei, 2 μM, 72 hours, normalized to DMSO control) [%] | inhibition at 5 µM (Trypanosoma brucei, T. brucei, 5 μM, 72 hours, normalized to DMSO control) [%]
1 | Cc1ccc(C(=O)Nc2ccc(Cl)c(Cl)c2)cc1S(=O)(=O)N1CCCC(N)C1.O=C(O)C(F)(F)F (centres unmarked) [JC-929] | 5 | 99.7 | 100 |  |  | 
2 | Cc1ccc(C(=O)Nc2ccc(Cl)c(Cl)c2)cc1S(=O)(=O)C1CCCC(N)C1 (centres unmarked) [JC-955] | 25 | 100 |  |  |  | 
3 | Cc1ccc(S(=O)(=O)Nc2ccc(Cl)c(Cl)c2)cc1C(=O)Nc1ccc(Cl)c(Cl)c1 [JC-858] | 13 | 86 | 100 |  |  | 
4 | Cc1ccc(C(=O)Nc2ccc(Cl)c(Cl)c2)cc1S(=O)(=O)NC(Cc1ccccc1)C(N)=O (centres unmarked) [JC-869] | −34 |  | 30 |  |  | 
5 | Cc1ccc(C(=O)Nc2ccc(Cl)c(Cl)c2)cc1S(=O)(=O)NCCCNC(=S)Nc1ccc(F)cc1 [JC-1015] | 11 | 100 |  |  |  | 
6 | Cc1ccc(C(=O)Nc2ccc(Cl)c(Cl)c2)cc1S(=O)(=O)Nc1cc(C(C)C)n[nH]1 [JC-888] | 16 | 62.1 | 100 |  |  | 
7 | Cc1ccc(C(=O)Nc2ccc(Cl)c(Cl)c2)cc1S(=O)(=O)NCc1ccccc1 [JC-857] | −5 |  | 14 |  |  | 
8 | Cc1ccc2c(NS(=O)(=O)c3cc(C(=O)Nc4ccc(Cl)c(Cl)c4)ccc3C)cccc2n1 [JC-913] | 2 |  | 6 |  |  | 
9 | Cc1ccc(C(=O)Nc2ccc(Cl)c(Cl)c2)cc1S(=O)(=O)N1CCCC(NC(=S)Nc2cccc(C(F)(F)F)c2)C1 (centres unmarked) [JC-1005] | 100 | 100 |  |  |  | 
10 | Cc1ccc(C(=O)N[C@H](Cc2ccccc2)C(N)=O)cc1S(=O)(=O)Nc1ccc(Cl)c(Cl)c1 [JC-861] | 5 |  | 4 |  |  | 
11 | Cc1ccc(C(=O)Nc2ccc(Cl)c(Cl)c2)cc1S(=O)(=O)N1CCCC(NC(=S)Nc2ccc(Cl)c(Cl)c2)C1 (centres unmarked) [JC-1007] | 100 | 101 |  |  |  | 
12 | Cc1ccc(C(=O)Nc2ccc(Cl)c(Cl)c2)cc1S(=O)(=O)NCCNC(=O)OC(C)(C)C [JC-917] | −14 |  | 73 |  |  | 
13 | CCOc1ccc2cc(C3CC(c4ccc(Br)cc4)=NN3C(=O)CCC(=O)O)c(Cl)nc2c1 (centres unmarked) [TDRL-505, reference compound] |  |  |  | no effect |  | 
14 | Cc1ccc(C(=O)Nc2ccc(Cl)c(Cl)c2)cc1S(=O)(=O)N1CCC(N)CC1.O=C(O)C(F)(F)F [JC-906] | 23 | 100 | 100 |  |  | 
15 | Cc1ccc(C(=O)Nc2ccc(Cl)c(Cl)c2)cc1S(=O)(=O)N1CCC(NC(=O)c2ccccc2)CC1 [JC-966] | 13 | 0 |  |  |  | 
16 | Cc1ccc(C(=O)NCCO)cc1S(=O)(=O)Nc1ccc(Cl)c(Cl)c1 [JC-864] | −20 |  | 42 |  |  | 
17 | Cc1ccc(C(=O)Nc2ccc(Cl)c(Cl)c2)cc1S(=O)(=O)NCc1nc2ccccc2[nH]1.O=C(O)C(F)(F)F [JC-905] | 8 |  | 10 |  |  | 
18 | CC(=O)c1ccc(NS(=O)(=O)c2cc(C(=O)Nc3ccc(Cl)c(Cl)c3)ccc2C)cc1 [JC-909] | 15 |  | 17 |  |  | 
19 | Cc1ccc(C(=O)Nc2ccc(Cl)c(Cl)c2)cc1S(=O)(=O)NCCCN.O=C(O)C(F)(F)F [JC-933] | 5 |  | 60 |  |  | 
20 | Cc1ccc(C(=O)Nc2cc(C(F)(F)F)n[nH]2)cc1S(=O)(=O)Nc1ccc(Cl)c(Cl)c1 [JC-866] | −15 |  | 23 |  |  | 
21 | Cc1ccc(C(=O)Nc2ccc(Cl)c(Cl)c2)cc1S(=O)(=O)NCCN.O=C(O)C(F)(F)F [JC-918] | −20 |  | 56 |  |  | 

Row | Compound | % Inhibition @2 μM [1] [%] | % Inhibition @5 μM [2] [%] | % Inhibition @10 μM [3] [%] | effect on T. brucei proliferation (even at 60 μM) | inhibition at 2 µM (Trypanosoma brucei, T. brucei, 2 μM, 72 hours, normalized to DMSO control) [%] | inhibition at 5 µM (Trypanosoma brucei, T. brucei, 5 μM, 72 hours, normalized to DMSO control) [%]
22 | Cc1ccc(C(=O)Nc2ccc(Cl)c(Cl)c2)cc1S(=O)(=O)N1CCC(NC(=S)Nc2ccc(F)cc2)CC1 [JC-970] |  |  |  |  | 100 | 100
23 | Cc1ccc(C(=O)Nc2ccc(Cl)c(Cl)c2)cc1S(=O)(=O)N1CCCC(NC(=O)c2ccccc2)C1 (centres unmarked) [JC-931] | 3 | 98.5 | 100 |  |  | 
24 | Cc1ccc(C(=O)Nc2ccc(Cl)c(Cl)c2)cc1S(=O)(=O)C1CCC(N)CC1 (centres unmarked) [JC-925] | −8 |  | 17 |  |  | 
25 | Cc1ccc(C(=O)Nc2ccc(Cl)c(Cl)c2)cc1S(=O)(=O)NCCNS(=O)(=O)c1ccc(Br)cc1 [JC-923] | 2 | 100.9 | 100 |  |  | 
26 | Cc1ccc(C(=O)Nc2ccc(Cl)c(Cl)c2)cc1S(=O)(=O)N1CCN(C)CC1 [JC-916] | −2 |  | 36 |  |  | 
27 | Cc1ccc(C(=O)Nc2ccc(Cl)c(Cl)c2)cc1S(=O)(=O)NCCN(C)C [JC-871] | −3 |  | 79 |  |  | 
28 | Cc1ccc(C(=O)Nc2ccc(Cl)c(Cl)c2)cc1S(=O)(=O)C1CCC(NC(=O)OC(C)(C)C)CC1 (centres unmarked) [JC-924] | −2 | 99.4 | 100 |  |  | 
29 | Cc1ccc(C(=O)Nc2ccc(Cl)c(Cl)c2)cc1S(=O)(=O)N1CCC(NC(=O)CCc2ccccc2)CC1 [JC-968] | 1 | 5 |  |  |  | 
30 | Cc1ccc(C(=O)Nc2ccc(Cl)c(Cl)c2)cc1S(=O)(=O)NC1CC(NC(=O)OC(C)(C)C)C1 (centres unmarked) [JC-956] | −32 | 19 |  |  |  | 
31 | Cc1ccc(C(=O)Nc2ccc(Cl)c(Cl)c2)cc1S(=O)(=O)NCCNS(=O)(=O)c1ccc(OCc2ccccc2)cc1 [JC-997] | −9 | 92 |  |  |  | 
32 | O=C(Nc1ccc(Cl)c(Cl)c1)c1ccc(Cl)c(S(=O)(=O)Nc2ccc(Cl)c(Cl)c2)c1 [JC-853] | −17 |  | 81 |  |  | 
33 | Cc1ccc(C(=O)Nc2ccc(Cl)c(Cl)c2)cc1S(=O)(=O)N1CCOCC1 [JC-885] | 13 |  | 38 |  |  | 
34 | Cc1ccc(C(=O)NCCN(C)C)cc1S(=O)(=O)Nc1ccc(Cl)c(Cl)c1.O=C(O)C(F)(F)F [JC-863] | −40 |  | 2 |  |  | 
35 | CC(=O)NCCNS(=O)(=O)c1cc(C(=O)Nc2ccc(Cl)c(Cl)c2)ccc1C [JC-919] | −10 |  | 18 |  |  | 
36 | Cc1ccc(C(=O)Nc2ccc(Cl)c(Cl)c2)cc1S(=O)(=O)NCCNC(=S)Nc1ccccc1F [JC-1001] | 49 | 66 |  |  |  | 
37 | Cc1ccc(C(=O)Nc2ccc(Cl)c(Cl)c2)cc1S(=O)(=O)NCCNS(=O)(=O)c1cccc(F)c1 [JC-996] | −19 | 69 |  |  |  | 
38 | Cc1ccc(C(=O)Nc2ccc(Cl)c(Cl)c2)cc1S(=O)(=O)N1CCC(NC(=S)Nc2ccc(C(F)(F)F)cc2)CC1 [JC-1020] | 100 | 100 |  |  |  | 
39 | Cc1ccc(C(=O)Nc2ccc(Cl)c(Cl)c2)cc1S(=O)(=O)NCc1cccc2ccccc12 [JC-887] | −9 |  | 14 |  |  | 
40 | Cc1ccc(C(=O)Nc2ccc(Cl)c(Cl)c2)cc1S(=O)(=O)Nc1ccc([N+](=O)[O-])cc1N [JC-892] | 13 |  | 1 |  |  | 
41 | Cc1ccc(C(=O)Nc2ccc(Cl)c(Cl)c2)cc1S(=O)(=O)Nc1nc2ccccc2[nH]1 [JC-873] | −4 | 1 | 100 |  |  | 

Source: patent US20250188033A1, “INHIBITOR OF REPLICATION PROTEIN A1 OF TRYPANOSOMA BRUCEI AND METHOD OF USE THEREOF” (Research Foundation of the City University of New York, published 2025)
